# According to patent US8778884B2, “Glioprotectant peptide for use in the treatment of amyotrophic lateral sclerosis (ALS) and methods related thereto” (Fondazione Salvatore Maugeri Clinica del Lavora e Della …, priority 2011, dated 2014):
# Several values for one entry are separate records, joined by “and”; a condition that tells them apart may be missing. Identical values can stand only once. Entries after “also recorded” stand apart in the source; their conditions may differ.
# Tests used:
# [1] = test system: hSOD1^G93A-expressing astrocytes; assay: single-cell Fluo4 [Ca^2+]i imaging in hSOD1^G93A-expressing astrocytes; format: cell-based, mouse
# Protocol: (§1) Astrocytes cultures. Primary astrocyte cultures (>99% GFAP-positive) were prepared from the spinal cord of newborn mice (hSOD1^G93A or wild-type littermates). Once the cultures reached the confluence, they were replated at the optimal density either in 24-well plates or 35-mm Petri dishes containing glass coverslips and maintained in Minimal Essential Medium (MEM, GIBCO) supplemented with 10% foetal bovine serum (FBS, Sigma-Aldrich).
# (§2) [Ca^2+]i imaging. ASTROCYTES were plated (2.5×10^4 cells/35 mm Petri dish) on glass coverslips and used 2-3 days later as already shown. Before imaging, cells were loaded with 5 μM Fluo4-AM (Molecular Probes) for 15-20 min. at 37° C. in a HEPES-KRH buffer containing (in mM): NaCl 116, KCl 4, MgCl2 1, CaCl2 1.8, HEPES-acid 10, glucose 25 (pH 7.4) and then allowed to de-esterify for 10 min. After several washes, coverslips were mounted in an open perfusion micro-incubator (PDMI-2, Harvard Apparatus) set at 37° C. on the stage of the optical recording microscope. During experiments, cells were continuously perfused with HEPES-KRH (1 ml/min), and 100 μM DHPG was applied via a software-controlled micro-perfusion fast-step device (100 μl/min, Warner Instrument Corp.) A Zeiss Axiovert 200 inverted fluorescence microscope was modified to allow EPI illumination (Visitron Systems). Fluo4 fluorescence was recorded through a 63× or 40× objectives lens (Zeiss, Neofluar 63×/1.25 Oil, Neofluar 40×/1.3 Oil) and directed through a Zeiss filter set 10 (BP 450-490; BP 515-565) at 200- or 400 ms of intervals by imaging with excitation light at 488 nm generated by a polychromator illumination system (Visichrome, Visitron). Video images, digitized with MetaFluor, were analyzed with MetaMorph software (Universal Imaging). Temporal dynamics of Fluo4 fluorescence have been expressed as background-subtracted ΔF/F0(%), where F0 represents the fluorescence level of the cells before stimulation, and F represents the change in fluorescence occurring during the stimulus.
# (§3) [Ca^2+]i imaging. The measurements of [Ca^2+]i were performed as described in Example 2. Briefly, cells were loaded with 5 μM Fluo4-AM and then allowed to de-esterify for 10 min.
# (§4) After several washes, coverslips were mounted in an open perfusion micro-incubator set at 37° C. on the stage of the optical recording microscope. During experiments, cells were continuously perfused with HEPES-KRH (1 ml/min), and 0.5 μM TAT-BH4 was applied 30 min. before adding 100 μM DHPG via a software-controlled micro-perfusion fast-step device (100 μl/min, Warner Instrument Corp.).
# wild-type astrocytes = assay: single-cell Fluo4 [Ca^2+]i imaging in wild-type astrocytes; format: cell-based, mouse
# Protocol: as §1, §2, §3, §4
# [2] = test system: hSOD1^G93A-expressing astrocytes; assay: astrocyte toxicity assay, DHPG challenge (nuclear condensation, active caspase-3); format: cell-based, mouse
# Protocol: (§5) Pharmacological treatments in vitro. To assess the ability of TAT-BH4 to penetrate into cells, astrocytes (8×10^4 cells/well) were plated in 24-well plates containing glass coverslips. Cultures were treated with 10 μg/ml Hoechst 33342 (Sigma) for 15 min., quickly washed and incubated with 0.5 μM TAT-BH4 (TAT^48-57 conjugated to the BH4 domain of Bcl-XL) either unconjugated or conjugated with 5(6)-carboxyfluorescein (FAM, Primm srl) for 30 min. Peptides in excess were subsequently removed, cells were washed and immediately fixed (methanol:acetone 1:1 for 10 min.) or maintained in culture for 24 hrs and then fixed. The presence of the peptides inside the cells was evaluated by a digital camera (DFC 310 FX, Leica Microsystem) mounted on a DM5000 B microscope (Leica Microsystem) and analysed by Leica Application Suite 3.5.0 software. […]
# (§6) Astrocyte toxicity assays. The toxic effect of DHPG or staurosporine on cultured astrocytes was determined by double staining with the fluorescent nuclear dye Hoechst 33342 and anti-active caspase-3 immunocytochemistry using a rabbit polyclonal antibody (1:50, Cell Signalling Technology). The number of astrocytes showing condensed nuclei and activated caspase-3 24 hrs after the pharmacological challenge was counted by two independent operators in a blind manner. […]
# [3] = test system: hSOD1^G93A-expressing astrocytes; assay: cytochrome c release (co-localization of Cyt c with SOD2); format: cell-based, mouse; conditions: DHPG 100 μM
# Protocol: Pharmacological treatments in vitro. To assess the ability of TAT-BH4 to penetrate into cells, astrocytes (8×10^4 cells/well) were plated in 24-well plates containing glass coverslips. Cultures were treated with 10 μg/ml Hoechst 33342 (Sigma) for 15 min., quickly washed and incubated with 0.5 μM TAT-BH4 (TAT^48-57 conjugated to the BH4 domain of Bcl-XL) either unconjugated or conjugated with 5(6)-carboxyfluorescein (FAM, Primm srl) for 30 min. Peptides in excess were subsequently removed, cells were washed and immediately fixed (methanol:acetone 1:1 for 10 min.) or maintained in culture for 24 hrs and then fixed. The presence of the peptides inside the cells was evaluated by a digital camera (DFC 310 FX, Leica Microsystem) mounted on a DM5000 B microscope (Leica Microsystem) and analysed by Leica Application Suite 3.5.0 software. To test the protective efficacy of TAT-BH4, astrocytes in culture were pre-exposed to different concentrations of the peptide (0.1 and/or 0.5 μM, 30 min.), washed and then treated with DHPG (100 μM, 30 min., Tocris Cookson Ltd.) or staurosporine (1 μM, 6 hrs, Sigma-Aldrich). After removal of DHPG, astrocytes were allowed to recover at 37° C. for 24 hrs.
# Cytochrome c release. […] Cytochrome c release from mitochondria was determined by its co-localization with the mitochondrial protein SOD2 using JACoP plug-in ImageJ. […]
# astrocyte cultures = assay: astrocyte toxicity assay, staurosporine challenge (nuclear condensation); format: cell-based, mouse
# Protocol: as §5, §6
# hSOD1^G93A mice [4] = assay: chronic treatment of hSOD1^G93A mice: disease onset, rotarod, survival; format: in vivo, mouse; conditions: 5 mg/kg i.p. daily from age 40 days
# Protocol: Transgenic mice. Transgenic mice expressing human SOD1^G93A (B6SJL-TgN(SOD1-G93A)1Gur were purchased from The Jackson Laboratories. The colonies were maintained by breeding hemizygote males to wild-type C57BI6/SJL F1 hybrid females. Offspring were genotyped and used for subsequent studies. Animal procedures were approved by the Italian Ministry of Health.
# (§7) Pharmacological treatment in vivo. hSOD1^G93A mice were administrated daily 5 mg/kg TAT-BH4 peptide in PBS containing 10% glycerol or vehicle alone (PBS plus 10% glycerol) intraperitoneally starting at the age of 40 days (n=14 mice for each condition). Mice were thereafter kept under daily observation and weighted twice a week. Age of disease onset was retrospectively determined as the time when mice reached the peak in the body weight. Motor performance was assessed twice a week by rotarod test starting at the age of 50 days. Briefly, animals were place on an accelerating rod (Ugo Basile) and the time each mouse remained on the rod was recorded. The average of three independent trials per session was used for further analysis of the data. End stage was defined as the time in which animals were unable to right themselves within 30 seconds when placed on their side.
# Statistics. Data are represented as mean±s.e.m. and statistical significance is verified using GraphPad Prism software. Unpaired or paired 2-tailed t-test was used for comparisons between two groups; one-way or two-way analysis of variance (ANOVA) followed by Bonferroni post-hoc test was used for comparisons of multiple groups; repeated measures two-way ANOVA was used for behavioral test; the Logrank test was used for disease onset and survival analysis.
# hSOD1^G93A mice [5] = assay: histopathological analysis of spinal cord of treated hSOD1^G93A mice; format: in vivo, mouse; conditions: 5 mg/kg i.p. daily
# Description: Tissue preparation and immunohistological analysis. For mouse tissue preparation, the spine was taken and immersed in 4% buffered paraformaldehyde for 24 hrs; spinal cord was extracted, the lumbar tract was removed and either paraffin embedded or cryoprotected in 30% sucrose before freezing. For human tissue preparation, spinal cord was removed and 0.5 cm thick slices were taken from the cervical (C7), thoracic (T4 and T8) and lumbar (L1) levels. Slices were fixed in 10% buffered formalin and embedded in paraffin. Mouse or human spinal cords were sectioned at 5-10 μm and used to perform different immunostainings. On selected sections, the following primary antibodies were used: GFAP (mouse monoclonal antibody, 1:50, Dako), CD11b (rat monoclonal antibody, 1:500, Serotec), mGluR5 (rabbit polyclonal antibody, 1:100, MBL International Corporation); active caspase-3 (rabbit polyclonal antibody, 1:50, Cell Signalling Technology). For active caspase-3 immunostaining, a Tyramide Amplification System kit was used (Perkin Elmer, Inc.). For histopathological analysis, serial sections were either immunostained for GFAP/active caspase-3 or treated with 0.5% cresyl violet (Sigma Aldrich) to detect motor neuron Nissl substance. GFAP/active caspase-3 positive astrocytes and motor neurons were counted for a total of 9 disectors using an unbiased stereologic physical disector technique. Z-axis image stacks (z-step size: 0.5 μm) were collected to generate three-dimensional data sets of spinal cord sections on an MRC 1024 Bio-Rad confocal microscope with a 63× Plan Neofluar NA1,25 oil-immersion objective in condition of optimal iris diameter as defined by LaserSharp 2000 software. Quantitative analysis of punctuate mGluR5, GFAP or CD11 b stainings was performed on confocal acquired images (1024×1024 pixels) of the spinal cord ventral horns from both wild-type and SOD1^G93A animals using ImageJ software (National Institutes of Health). After establishing an intensity threshold, the software calculated the percentage of area occupied by mGluR5, GFAP or CD11b staining by dividing the area of immunopositivity by the total area.
# as §7
# [6] = TAT-BH4 0.5 μM 30 min before DHPG 100 μM
# [7] = TAT-BH4 0.5 μM 30 min before STS 1 μM
compound,measurement,setting,value
"NC(C(=O)O)c1cc(O)cc(O)c1 (racemic) [DHPG, (RS)-3,5-dihydroxyphenylglycine, reference compound]",change of initial [Ca^2+]i transient (ΔF/F0) with respect to wild-type cells,[1]; DHPG 100 μM,−63%
same,peak amplitude of initial DHPG-evoked [Ca^2+]i transient,[1]; DHPG 100 μM,0.1±0.08 ΔF/F0
same,time to plateau of long-lasting [Ca^2+]i rise,[1]; DHPG 100 μM,about 10 min
same,average [Ca^2+]i oscillation frequency,wild-type astrocytes; DHPG 100 μM,17±2.5 mHz
same,peak amplitude of initial DHPG-evoked [Ca^2+]i transient,wild-type astrocytes; DHPG 100 μM,0.27±0.18 ΔF/F0
same,"percentage of astrocytes with nuclear condensation and caspase-3 activation, effect of DHPG","[2]; DHPG 100 μM, compared with wild-type cells",induces an increment
same,"mitochondria and cytochrome c, effect of DHPG",[3],causes mitochondrial disarrangement and release of cytochrome c
"CN[C@@H]1C[C@H]2O[C@@](C)([C@@H]1OC)n1c3ccccc3c3c4c(c5c6ccccc6n2c5c31)C(=O)NC4 [STS, staurosporine, reference compound]",amplitude of [Ca^2+]i plateau,wild-type astrocytes; STS 1 μM,3.52±0.22 ΔF/F0
same,time to plateau of long-lasting calcium rise,wild-type astrocytes; STS 1 μM,75 to 80 min
same,"percentage of cells with nuclear condensation, effect of STS","astrocyte cultures; STS 1 μM, 6 h",caused an increment in the percentage of cells with nuclear condensation
"H2N-GRKKRRQRRRGGSNRELVVDFLSYKLSQKGYS-COOH (H-GRKKRRQRRRGGSNRELVVDFLSYKLSQKGYS-OH) [TAT-BH4, BH4 domain of Bcl-XL fused via GG to the protein transduction domain of the HIV TAT protein]",average [Ca^2+]i oscillation frequency after DHPG,[1]; [6],14±3.1 mHz
same,percentage of cells in which DHPG evokes a single [Ca^2+]i transient followed by sustained [Ca^2+]i oscillations (pattern as in wild-type),[1]; [6],100% and 99%
same,[Ca^2+]i response to local application of the peptide alone,"[1]; TAT-BH4 0.5 μM, 30 min",immediate [Ca^2+]i rise followed by sustained [Ca^2+]i oscillations
same,"change of persistent [Ca^2+]i rise evoked by STS, with respect to STS alone",wild-type astrocytes; [7],−72%
same,effect on [Ca^2+]i oscillations in STS-treated cells,wild-type astrocytes; [7],restored [Ca^2+]i oscillations; also recorded: re-establishment of [Ca^2+]i oscillations
same,[Ca^2+]i response to local application of the peptide alone,"wild-type astrocytes; TAT-BH4 0.5 μM, 30 min",immediate [Ca^2+]i rise followed by sustained [Ca^2+]i oscillations
same,"percentage of astrocytes with nuclear condensation and caspase-3 activation after DHPG, effect of peptide","[2]; TAT-BH4 0.5 μM 30 min pre-treatment, DHPG 100 μM 30 min, 24 hrs recovery",significantly reduced; also recorded: significant reduction
same,"release of cytochrome c / co-localization of Cyt c and SOD2 after DHPG, effect of peptide",[3]; TAT-BH4 0.5 μM 30 min pre-treatment,restores the complete co-localization of the two proteins; also recorded: significant reduction
same,"cells with nuclear condensation (apoptotic cells) after STS, effect of peptide","astrocyte cultures; TAT-BH4 0.1 or 0.5 μM 30 min pre-incubation, STS 1 μM 6 h",reduced the number of apoptotic cells in a dose-dependent manner; also recorded: potently inhibited in a dose-dependent fashion
same,extension of life span,hSOD1^G93A mice [4],15 days
same,rotarod motor performance compared to saline-treated animals,hSOD1^G93A mice [4],significantly improves motor performance; also recorded: performed significantly better
same,age at disease onset (peak body weight),hSOD1^G93A mice [4]; n=14,107.5 ± 1.8 days
same,survival time,hSOD1^G93A mice [4]; n=14,138 ± 2.1 days
same,delay of onset of symptoms compared to controls,hSOD1^G93A mice [4]; onset = peak body weight,8 days
same,CD11b-immunopositive microglial cells,hSOD1^G93A mice [5]; n=18 fields from three mice,1040.7±20.4 cells/mm^2
same,GFAP-positive astrocytes in spinal ventral horns,hSOD1^G93A mice [5]; n=18 fields from three mice,917.9±33.1 cells/mm^2
same,"change in number of spheroid astrocytes immunopositive for active caspase-3, with respect to saline-treated mice",hSOD1^G93A mice [5]; 100 day-old mice,−74%
same,number of caspase-3-positive cells compared to saline,hSOD1^G93A mice [5]; 100 day-old mice,significantly lower
same,number of motor neurons in spinal cord,hSOD1^G93A mice [5]; 100 day-old mice,preservation of a greater number of motor neurons
